Where “and” joins values, the source holds several entries; their conditions need not be identical. Equal values may be shown once.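 Grown in 96-well plates, cells were treated for 48 hours with each compound at five concentrations. Insufficient inhibition: endpoint recorded as highest concentration tested. Here, GI50 denotes the concentration required for 50% inhibition of growth. Definition used: TGI = concentration required for complete inhibition of growth.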

Some test systems named below: MALME-3M melanoma; NCI-H226 lung; RXF 393 renal; UO-31 renal; MDA-MB-231 breast; KM12 colon; HS 578T breast; SN12C renal; SNB-75 CNS; RPMI-8226 leukemia.
What all share (assay): NCI anticancer screen, dose series, 48 h

With `CC(=O)NC1C(OC[C@@H](CC(=O)N[C@@H](CC(=O)O)CC(=O)N[C@H](CC(=O)N[C@@H](CCCN)CC(=O)N[C@@H](CCCN)CC(=O)N[C@H](CC(N)=O)C(C)C)C(C)C)NC(=O)C[C@@H](N)C(C)C)OC(CO)C(O)C1O` (stereo not given in full), the GI50 in the assay with MALME-3M melanoma, with NCI-H226 lung, in the assay with RXF 393 renal, with UO-31 renal, in the assay with MDA-MB-231 breast and with KM12 colon was more than 100 µM throughout. For the same molecule, the GI50 in the assay with HS 578T breast, with SN12C renal, with SNB-75 CNS and in the assay on RPMI-8226 leukemia was more than 100 µM each time. Moreover, the TGI with MALME-3M melanoma, with NCI-H226 lung, in the assay with RXF 393 renal, with UO-31 renal, with MDA-MB-231 breast and with KM12 colon was more than 100 µM throughout. Also, the TGI with HS 578T breast, with SN12C renal, in the assay with SNB-75 CNS and in the assay with RPMI-8226 leukemia was more than 100 µM throughout.

For the molecule `OC(Cc1ccncc1)C(Cl)(Cl)Cl` (stereo not given), the GI50 with MALME-3M melanoma, in the assay with NCI-H226 lung, in the assay on RXF 393 renal, in the assay on UO-31 renal, with MDA-MB-231 breast and with KM12 colon was more than 100 µM in each case. In addition, the GI50 in the assay on HS 578T breast was more than 100 µM; with SN12C renal it was more than 100 µM; in the assay with SNB-75 CNS, more than 100 µM; in the assay with RPMI-8226 leukemia it was 0.0586 µM. Further, the TGI with MALME-3M melanoma, in the assay with NCI-H226 lung, in the assay on RXF 393 renal, in the assay with UO-31 renal, in the assay with MDA-MB-231 breast and in the assay on KM12 colon was more than 100 µM each time. In addition, the TGI in the assay with HS 578T breast, with SN12C renal, in the assay with SNB-75 CNS and in the assay on RPMI-8226 leukemia was more than 100 µM each time.

Regarding `COc1ccc(-c2cc3c(c4cc(OC)ccc24)C(=O)OC3=O)cc1`, the TGI in the assay with MALME-3M melanoma, in the assay on NCI-H226 lung, in the assay on RXF 393 renal, in the assay on UO-31 renal, in the assay with MDA-MB-231 breast and in the assay with KM12 colon was more than 100 µM throughout. The TGI with HS 578T breast, with SN12C renal, in the assay with SNB-75 CNS and in the assay with RPMI-8226 leukemia was more than 100 µM in each case.

For `O=C(c1ccccc1)c1ccccc1-c1ccccc1`, the GI50 with MALME-3M melanoma is 8.79 µM; in the assay with NCI-H226 lung it was 19.6 µM; in the assay on RXF 393 renal, 3.17 µM; with UO-31 renal it was 6.99 µM; with MDA-MB-231 breast it was 5.14 µM; in the assay with KM12 colon it was 1.16 µM. Also, the GI50 was 1.58 µM with HS 578T breast, 8.46 µM in the assay with SN12C renal, 2.11 µM in the assay on SNB-75 CNS and 4.91 µM in the assay on RPMI-8226 leukemia. Also, the TGI is 65.7 µM in the assay on MALME-3M melanoma; more than 100 µM in the assay with NCI-H226 lung; 22.7 µM in the assay on RXF 393 renal; 98.1 µM in the assay with UO-31 renal; more than 100 µM in the assay on MDA-MB-231 breast; 43.3 µM with KM12 colon. Also, the TGI in the assay with HS 578T breast is 10.2 µM; in the assay with SN12C renal it was more than 100 µM; in the assay with SNB-75 CNS, 19.8 µM; with RPMI-8226 leukemia, 52 µM.

For the molecule `C=C(C)[C@@H]1CC[C@]2(C)CC[C@]3(C)[C@H](CC[C@@H]4[C@@]5(C)CC[C@H](O)C(C)(C)[C@@H]5CC[C@]43C)[C@@H]12`, the TGI with MALME-3M melanoma was more than 100 µM; in the assay on NCI-H226 lung, more than 86.5 µM; with RXF 393 renal it was 28.7 µM; in the assay on UO-31 renal, more than 72.1 µM; in the assay on MDA-MB-231 breast, more than 100 µM; in the assay with KM12 colon, more than 100 µM. The TGI with HS 578T breast is 61.7 µM; in the assay with SN12C renal, more than 100 µM; in the assay on SNB-75 CNS, more than 80.1 µM; with RPMI-8226 leukemia, more than 100 µM.

For `CC[C@@H]1c2c(C#N)ncn2-c2cnc(Nc3ccc(C(=O)NC4CCN(C5CCN(CC6CC6)CC5)CC4)cc3OC)nc2N1C1CCCC1`, the GI50 with MALME-3M melanoma was 0.0853 µM; in the assay on NCI-H226 lung it was 1.31 µM; in the assay on RXF 393 renal it was 0.0462 µM; with UO-31 renal, 1.36 µM; in the assay with MDA-MB-231 breast it was 0.0631 µM and 0.0382 µM; with KM12 colon, 0.0363 µM and 0.0338 µM. Further, the GI50 in the assay on HS 578T breast is 0.069 µM; with SN12C renal it was 0.0916 µM; in the assay with SNB-75 CNS it was 0.0452 µM; in the assay on RPMI-8226 leukemia it was 0.083 µM. In addition, the TGI with MALME-3M melanoma is 1.85 µM; with NCI-H226 lung, 2.64 µM; in the assay with RXF 393 renal, 1.8 µM; in the assay with UO-31 renal, 2.69 µM; in the assay with MDA-MB-231 breast, 1.31 µM and 0.219 µM; in the assay with KM12 colon, 1.07 µM and 1.05 µM. The TGI was determined as 1.78 µM with HS 578T breast, 1.91 µM in the assay on SN12C renal, 1.26 µM in the assay on SNB-75 CNS and 2.97 µM in the assay with RPMI-8226 leukemia.

On to `COc1cc(/C=C\c2cc(OC)c(OC)c(OC)c2)cc(NC(=O)/C=C/c2cc(OC)c(OC)c(OC)c2)c1OC`, for which the GI50 was 3.34 µM with MALME-3M melanoma; 50 µM in the assay on NCI-H226 lung; 4.77 µM with RXF 393 renal; 1.09 µM in the assay with UO-31 renal; 5.43 µM in the assay on MDA-MB-231 breast; 3.42 µM with KM12 colon. Also, the GI50 in the assay on HS 578T breast is more than 100 µM; in the assay with SN12C renal, 27.6 µM; in the assay with SNB-75 CNS, 1.82 µM; with RPMI-8226 leukemia it was 1.36 µM. For the same molecule, the TGI with MALME-3M melanoma, in the assay on NCI-H226 lung, in the assay on RXF 393 renal, in the assay on UO-31 renal, in the assay on MDA-MB-231 breast and with KM12 colon was more than 100 µM throughout. In addition, the TGI with HS 578T breast, in the assay with SN12C renal, with SNB-75 CNS and in the assay with RPMI-8226 leukemia was more than 100 µM throughout.

`CN(CCO)CC[C@H](CSc1ccccc1)Nc1ccc(S(=O)(=O)NC(=O)c2ccc(N3CCC([C@@H](O)c4ccccc4-c4ccc(Cl)cc4)CC3)cc2)cc1S(=O)(=O)C(F)(F)F`: the GI50 was 2.48 µM in the assay with MALME-3M melanoma; 2.5 µM in the assay on NCI-H226 lung; 0.311 µM with RXF 393 renal; more than 100 µM in the assay with UO-31 renal; 0.235 µM in the assay on MDA-MB-231 breast; 3.18 µM in the assay on KM12 colon. The GI50 is 2.23 µM with HS 578T breast, 2.99 µM with SN12C renal, 3.63 µM in the assay on SNB-75 CNS and 0.16 µM in the assay on RPMI-8226 leukemia. For the same molecule, the TGI in the assay on MALME-3M melanoma was 8.55 µM; with NCI-H226 lung it was 7.46 µM; in the assay on RXF 393 renal, 1.54 µM; with UO-31 renal it was more than 100 µM; in the assay on MDA-MB-231 breast, 0.936 µM; in the assay with KM12 colon, 13.8 µM. Also, the TGI with HS 578T breast came out at 7.27 µM; with SN12C renal, 11.5 µM; in the assay on SNB-75 CNS, 34.2 µM; in the assay on RPMI-8226 leukemia, 2.94 µM.

For the origin of these results see PubChem BioAssay (NCI).
